Assay results from ChEMBL document CHEMBL1201862, “PubChem BioAssay data set” (2004).
The source made the active and inactive calls.

How the values were obtained:
Genome polyprotein = Genome polyprotein (dengue virus type 2, UniProt P29990); test: Dengue-2 NS5 methyltransferase inhibitors, primary screen, biochemical, confirmation dose response (AID 588689); format: functional
[1] = target: T1, Short transient receptor potential channel 4 (Mus musculus, UniProt Q9QUQ5); test: mouse TRPC4 channel inhibitors, dose response, cell-based, HEK293 TRPC4/mu-opioid, Fluo-4 calcium (AID 434942); format: functional;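 note: potency of inhibitors blocking the TRPC4 calcium response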
T1 sequence (Q9QUQ5 whole entry): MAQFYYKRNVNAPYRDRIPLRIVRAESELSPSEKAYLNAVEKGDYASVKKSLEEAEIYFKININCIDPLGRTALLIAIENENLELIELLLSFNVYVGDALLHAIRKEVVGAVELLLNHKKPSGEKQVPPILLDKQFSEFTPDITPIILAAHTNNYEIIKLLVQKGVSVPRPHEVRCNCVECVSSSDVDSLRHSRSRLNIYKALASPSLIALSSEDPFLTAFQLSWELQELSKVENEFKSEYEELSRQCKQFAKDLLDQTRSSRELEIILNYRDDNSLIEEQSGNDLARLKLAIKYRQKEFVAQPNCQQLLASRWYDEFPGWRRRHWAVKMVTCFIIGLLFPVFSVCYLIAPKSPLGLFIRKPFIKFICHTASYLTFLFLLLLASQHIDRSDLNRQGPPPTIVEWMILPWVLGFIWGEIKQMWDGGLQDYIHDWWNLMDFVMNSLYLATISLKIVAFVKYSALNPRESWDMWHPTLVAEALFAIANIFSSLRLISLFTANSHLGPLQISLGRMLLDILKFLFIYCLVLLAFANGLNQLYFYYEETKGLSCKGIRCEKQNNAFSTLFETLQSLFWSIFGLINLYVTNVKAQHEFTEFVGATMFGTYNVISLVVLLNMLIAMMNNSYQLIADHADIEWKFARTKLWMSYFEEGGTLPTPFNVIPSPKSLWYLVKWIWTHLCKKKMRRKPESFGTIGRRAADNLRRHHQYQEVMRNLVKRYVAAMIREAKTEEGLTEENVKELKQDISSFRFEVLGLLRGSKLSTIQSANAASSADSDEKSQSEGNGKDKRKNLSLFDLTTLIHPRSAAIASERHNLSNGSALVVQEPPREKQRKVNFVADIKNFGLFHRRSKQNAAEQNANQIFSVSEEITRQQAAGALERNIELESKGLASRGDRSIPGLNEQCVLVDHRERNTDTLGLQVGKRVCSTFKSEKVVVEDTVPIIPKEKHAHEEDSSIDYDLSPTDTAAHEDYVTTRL

Cytochrome P450 3A4 = Cytochrome P450 3A4 (Homo sapiens, UniProt P08684); conditions: Potency;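 note: confirmatory qHTS run detecting inhibitors and substrates of CYP3A4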
Chain of Cytochrome P450 3A4 (P08684 whole entry): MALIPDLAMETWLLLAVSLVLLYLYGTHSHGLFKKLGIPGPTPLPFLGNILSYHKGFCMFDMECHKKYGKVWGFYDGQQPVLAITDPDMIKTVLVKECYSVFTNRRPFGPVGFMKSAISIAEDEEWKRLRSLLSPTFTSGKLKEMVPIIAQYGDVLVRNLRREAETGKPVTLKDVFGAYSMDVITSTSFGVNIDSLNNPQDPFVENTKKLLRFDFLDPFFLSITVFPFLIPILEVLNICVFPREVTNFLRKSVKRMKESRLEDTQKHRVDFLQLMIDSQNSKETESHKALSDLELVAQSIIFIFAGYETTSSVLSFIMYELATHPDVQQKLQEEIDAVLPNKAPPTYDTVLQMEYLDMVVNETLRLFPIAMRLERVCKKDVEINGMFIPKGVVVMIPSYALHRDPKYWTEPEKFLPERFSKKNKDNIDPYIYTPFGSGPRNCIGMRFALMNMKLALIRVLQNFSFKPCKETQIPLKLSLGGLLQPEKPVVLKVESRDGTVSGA

[2] = target: Heat shock protein HSP 90-alpha (Homo sapiens, UniProt P07900); format: functional, organism-based
Streptococcus = test: Group A Streptococcus viability loss, dose response, counter-screen for streptokinase expression inhibitor project, luminescence, BacTiterGlo (AID 1915); format: functional, organism-based;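 note: potency for reduction of bacterial viability or growth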
BJ [3] = test: cells; format: functional, cell-based; conditions: Homo sapiens
BJ [4] = test: cytotoxicity toward BJ-TERT fibroblasts, dose response, cell-based, RAS-independent, luminescence (AID 1933); format: functional; conditions: Homo sapiens
Streptokinase A = target: T2, Streptokinase A (Streptococcus pyogenes serotype M1, UniProt P10520); test: S. pyogenes streptokinase expression inhibitors, potency, dose response, plasminogen activation absorbance, OD405 (AID 1914); format: functional, Streptococcus pyogenes M1 GAS;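 note: secreted streptokinase activity via plasminogen activation per viability signal from cell pellet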
T2 sequence (P10520 whole entry): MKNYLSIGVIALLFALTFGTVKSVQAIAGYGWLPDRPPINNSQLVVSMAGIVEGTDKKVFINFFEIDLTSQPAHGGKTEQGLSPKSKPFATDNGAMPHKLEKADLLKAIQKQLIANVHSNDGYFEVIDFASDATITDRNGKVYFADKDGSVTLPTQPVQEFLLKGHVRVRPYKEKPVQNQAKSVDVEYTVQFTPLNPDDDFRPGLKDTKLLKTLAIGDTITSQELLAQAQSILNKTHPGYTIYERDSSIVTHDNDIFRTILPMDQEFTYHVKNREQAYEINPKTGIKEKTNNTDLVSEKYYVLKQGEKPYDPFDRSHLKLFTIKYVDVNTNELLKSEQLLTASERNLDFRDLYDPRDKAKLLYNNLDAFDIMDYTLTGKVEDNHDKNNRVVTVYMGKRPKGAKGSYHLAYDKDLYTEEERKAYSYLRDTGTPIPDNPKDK

[5] = test system: Streptococcus sp. 'group A'; test: growth inhibition of control SK(-) GAS strain, dose response, counter-screen for streptokinase expression inhibitor project, luminescence, kanamycin, BacTiterGlo, confirmation (AID 1900); format: functional, organism-based
[6] = cytotoxicity toward DRD oncogenic fibroblasts, dose response, cell-based, non-viral oncogenic, luminescence (AID 1934); format: functional; conditions: Homo sapiens
INS1 = test: beta cell apoptosis inhibitors, cytokine rescue, dose response, luminescence, retest (AID 449756); format: functional, cell-based; conditions: Rattus norvegicus;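 note: cell death triggered by IL-1 beta plus TNF-alpha plus IFN-gamma mixture; protective hits raise ATP signal compared with cytokine alone wells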
Large T antigen = Large T antigen (Simian virus 40, UniProt P03070); format: functional, Betapolyomavirus macacae;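 note: Confirmatory-stage PubChem screen for compounds that inhibit SV40 T antigen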
Chain of Large T antigen (P03070 whole entry): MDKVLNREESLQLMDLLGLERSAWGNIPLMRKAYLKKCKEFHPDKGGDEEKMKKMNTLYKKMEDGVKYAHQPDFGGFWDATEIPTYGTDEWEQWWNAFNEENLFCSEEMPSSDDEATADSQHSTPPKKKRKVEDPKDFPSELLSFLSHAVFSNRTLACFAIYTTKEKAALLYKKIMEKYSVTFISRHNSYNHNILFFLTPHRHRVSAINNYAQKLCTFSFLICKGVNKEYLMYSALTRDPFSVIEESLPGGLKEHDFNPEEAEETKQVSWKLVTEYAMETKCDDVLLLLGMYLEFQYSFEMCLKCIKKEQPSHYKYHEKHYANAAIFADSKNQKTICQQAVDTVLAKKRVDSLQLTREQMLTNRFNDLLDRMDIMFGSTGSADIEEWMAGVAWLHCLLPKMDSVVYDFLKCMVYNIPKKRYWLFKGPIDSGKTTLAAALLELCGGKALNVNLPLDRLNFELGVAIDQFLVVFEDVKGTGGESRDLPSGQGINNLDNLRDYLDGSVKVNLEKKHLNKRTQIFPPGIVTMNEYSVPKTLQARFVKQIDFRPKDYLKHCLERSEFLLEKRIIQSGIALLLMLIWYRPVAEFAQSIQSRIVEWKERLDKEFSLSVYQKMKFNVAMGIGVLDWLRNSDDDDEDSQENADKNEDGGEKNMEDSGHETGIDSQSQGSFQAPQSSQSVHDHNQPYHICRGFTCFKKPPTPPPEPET

[7] = NIH-3T3 fibroblast cytotoxicity, dose response, cytotoxicity control, cell-based, fluorescence, Alamar Blue, secondary assay (AID 2327); format: functional;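 note: NIH-3T3 mouse fibroblasts cultured with fluconazole at 8 µg/mL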
[8] = target: Glyceraldehyde-3-phosphate dehydrogenase (Homo sapiens, UniProt P04406)
Chain of Glyceraldehyde-3-phosphate dehydrogenase (P04406 whole entry): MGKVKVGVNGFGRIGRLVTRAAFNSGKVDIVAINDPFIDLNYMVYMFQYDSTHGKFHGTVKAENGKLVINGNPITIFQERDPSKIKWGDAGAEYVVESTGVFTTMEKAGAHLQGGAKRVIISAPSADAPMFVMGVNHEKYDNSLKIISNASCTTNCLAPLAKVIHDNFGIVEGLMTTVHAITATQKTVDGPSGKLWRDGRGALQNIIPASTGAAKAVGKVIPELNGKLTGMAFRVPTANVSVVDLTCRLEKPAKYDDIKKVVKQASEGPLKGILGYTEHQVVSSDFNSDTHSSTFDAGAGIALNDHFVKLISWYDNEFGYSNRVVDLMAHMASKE

[9] = THP-1 cell cytotoxicity, dose response, cytotoxicity control for non-replicating M. tuberculosis project (AID 489025); format: functional
[10] = target: T3, Polyadenylate-binding protein 1 (Homo sapiens, UniProt P11940); test: PABP1 MLLE–PAM2 binding inhibitor potency, dose response, biochemical, fluorescence polarization, FITC-PAM2 peptide (AID 602259); format: functional; conditions: read-out: IC50_Mean
T3 sequence (P11940 whole entry): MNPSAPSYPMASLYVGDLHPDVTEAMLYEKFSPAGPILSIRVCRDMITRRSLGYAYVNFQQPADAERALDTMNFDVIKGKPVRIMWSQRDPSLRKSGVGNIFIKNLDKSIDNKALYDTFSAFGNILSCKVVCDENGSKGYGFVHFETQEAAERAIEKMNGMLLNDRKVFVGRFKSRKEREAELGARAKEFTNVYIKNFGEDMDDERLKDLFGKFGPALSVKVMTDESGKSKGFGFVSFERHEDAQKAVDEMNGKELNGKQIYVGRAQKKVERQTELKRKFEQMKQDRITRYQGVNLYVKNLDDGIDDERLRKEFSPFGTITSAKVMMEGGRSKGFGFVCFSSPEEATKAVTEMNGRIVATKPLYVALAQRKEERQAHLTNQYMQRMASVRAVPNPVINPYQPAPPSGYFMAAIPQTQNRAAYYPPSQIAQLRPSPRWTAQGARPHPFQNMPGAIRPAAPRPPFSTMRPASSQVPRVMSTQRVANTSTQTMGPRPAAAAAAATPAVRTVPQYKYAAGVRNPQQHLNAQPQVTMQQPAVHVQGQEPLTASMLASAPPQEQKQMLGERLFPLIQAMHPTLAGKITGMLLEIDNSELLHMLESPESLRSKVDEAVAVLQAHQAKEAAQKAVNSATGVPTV

[11] = target: T3, Polyadenylate-binding protein 1; test: PABP1 MLLE–PAM2 interaction inhibitors, dose response, miRNA deadenylation inhibitor project, biochemical, fluorescence polarization, Cy5-PAM2 peptide, secondary (AID 602260); format: functional; conditions: read-out: IC50_Mean

Chain of Genome polyprotein (P29990 2492-3391 limits assumed): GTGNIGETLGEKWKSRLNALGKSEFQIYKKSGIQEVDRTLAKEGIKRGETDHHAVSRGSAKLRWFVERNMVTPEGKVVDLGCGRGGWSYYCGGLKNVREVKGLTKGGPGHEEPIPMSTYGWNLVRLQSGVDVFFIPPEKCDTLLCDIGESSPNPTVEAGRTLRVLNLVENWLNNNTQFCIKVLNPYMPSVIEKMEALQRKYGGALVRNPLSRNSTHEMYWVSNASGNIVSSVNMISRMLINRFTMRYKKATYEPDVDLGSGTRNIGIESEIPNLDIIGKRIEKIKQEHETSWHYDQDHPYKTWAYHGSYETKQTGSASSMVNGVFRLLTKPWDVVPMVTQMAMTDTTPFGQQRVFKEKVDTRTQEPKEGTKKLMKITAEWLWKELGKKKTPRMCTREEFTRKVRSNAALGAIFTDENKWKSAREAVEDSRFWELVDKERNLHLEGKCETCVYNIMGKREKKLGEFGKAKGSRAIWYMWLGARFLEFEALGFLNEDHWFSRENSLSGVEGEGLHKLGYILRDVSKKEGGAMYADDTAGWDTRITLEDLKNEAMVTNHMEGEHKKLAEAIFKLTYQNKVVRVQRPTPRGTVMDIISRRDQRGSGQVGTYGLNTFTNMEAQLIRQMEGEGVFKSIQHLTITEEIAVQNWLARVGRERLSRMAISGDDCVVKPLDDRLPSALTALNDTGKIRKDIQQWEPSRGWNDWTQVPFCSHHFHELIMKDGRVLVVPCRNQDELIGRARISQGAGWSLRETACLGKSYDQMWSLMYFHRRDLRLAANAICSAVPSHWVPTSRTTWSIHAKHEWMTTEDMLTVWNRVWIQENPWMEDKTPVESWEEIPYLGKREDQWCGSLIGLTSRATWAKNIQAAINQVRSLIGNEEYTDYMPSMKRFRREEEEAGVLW

SMILES: N#Cc1c(SC(C(=O)O)c2ccccc2)nc2c(c1-c1cccs1)CCCC2 (centres undefined)
- IC50 (Genome polyprotein): 39.2 µM (active)

SMILES: CCCSc1nc(N)nc(-c2cccs2)c1C#N
- EC50 [1]: 2.66 µM (active)

SMILES: O=C(CC(=O)c1ccccc1)c1ccccc1 [DIBENZOYLMETHANE]
- AC50 (Cytochrome P450 3A4): 12.6 µM (inconclusive)

SMILES: COC1=CC(=O)C(C(=O)c2ccccc2)=CC1=O [2-BENZOYL-5-METHOXYBENZOQUINONE]
- AC50 (Cytochrome P450 3A4): 10 µM (inconclusive)

SMILES: O=C(/C=C/c1cccc(Cl)c1)c1ccc([N+](=O)[O-])o1
- AC50 [2]: 1.28 µM (active)
- EC50 (Streptococcus): 6.98 µM (active)
- EC50 (BJ [3]): 9.18 µM (inconclusive)
- EC50 (BJ [4]): > 150 µM (inconclusive)
- EC50 (Streptokinase A): 3.36 µM (active)
- EC50 [5]: 3.18 µM (active)
- EC50 [6]: 2.5 µM (inconclusive)
- AC50 (INS1): 2.31 µM (active)
- IC50 (Large T antigen): 40.9 µM (active)
- EC50 [7]: 4.56 µM (inconclusive)

SMILES: NC1=NC(=O)/C(=C/c2ccc(-c3cc([N+](=O)[O-])ccc3Cl)o2)S1
- IC50 [8]: > 100 µM (not active)

SMILES: Cc1ccc(CNC(C)c2ccccc2)cc1 (centres undefined)
- EC50 [1]: 6.68 µM (active)

SMILES: CC1CC(C)(C)NCCNC(C)CC(C)(C)NCCN1 (centres undefined)
- IC50 [8]: > 10 µM (inconclusive)

SMILES: COc1ccc(CN2CCCC(C(=O)c3sccc3C)C2)cc1O (centres undefined)
- EC50 [1]: 11.9 µM (active)

SMILES: Cc1nc(Cl)nc(N(C)c2ccccc2)c1[N+](=O)[O-]
- CC50 [9]: 22.9 µM (active)
- EC50 [1]: 13.3 µM (active)

SMILES: CC1=CC(=O)C(Sc2ccc(C)cc2)=CC1=O
- IC50 (Genome polyprotein): 14.5 µM (active)
- IC50 [10]: > 66 µM (inactive)
- IC50 [11]: > 66 µM (inactive)

SMILES: COc1cc(O)cc(OC)c1OC [ANTIAROL]
- AC50 (Cytochrome P450 3A4): 31.6 µM (inconclusive)
